The values that follow come from patent US10561642B2, “Treatment of Zika virus infections using alpha-glucosidase inhibitors” (FLORIDA STATE UNIVERSITY RESEARCH FOUNDATION, INC., priority 2016, dated 2020).

Structures are written as SMILES.

Assay [1] has as its system Japanese encephalitis virus. The note with it: upon treatment; cited from earlier work.
Assay [2] has as its system Japanese encephalitis virus. The note with it: compared with Dengue virus; cited from earlier work.
The next assay has as its system FSS-13025 strain of ZIKV. The assay is described as follows: Anti-ZIKV activity in SNB-19 cells, ZIKV NS1 expression by Western blot. The format is cell-based, Zika virus. The note with it: 100 μm, 500 μm and 1 mM, treated one hour prior to inoculation (MOI=1), harvested 24 hours post-infection. As for the experimental part:
FIG. 1. Castanospermine as anti-ZIKV compound. Castanospermine was screened for antiviral activity against ZIKV infection. Glioblastoma SNB-19 cells were treated with castanospermine at the indicated concentrations one hour prior to inoculation with the FSS-13025 strain of ZIKV (at MOI=1). Cells were harvested 24 hours post-infection and analyzed by Western blot for ZIKV-NS1 or GAPDH.
Cells of the glioblastoma SNB-19 cell line were maintained at 37° C. in 5% CO2 in […], 1× penicillin/streptomycin, and 10% fetal bovine serum (Invitrogen). SNB-19 cells were treated with castanospermine at increasing concentrations (100 μm, 500 μm, and 1 mM) one hour prior to inoculation with the FSS-13025 strain of ZIKV. Cells were harvested 24 hours post-infection and analyzed by Western blot for ZIKV-NS1 or GAPDH.
A general note: Immunoblotting shows a protein as a band on a membrane.

For the compound `CCCCCCCCCN1C[C@H](O)[C@@H](O)[C@H](O)[C@H]1CO` [NN-DNJ, N-nonyl-deoxynojirimycin], the “Mortality rate among mice given a lethal dose of Japanese encephalitis virus” value in assay [1] is “decreased mortality rate”. Also, the “Effect on cell infection by Japanese encephalitis virus” value in assay [2] is on record as “suppressed cell infection but to a lesser extent than with Dengue virus”. Take `O[C@H]1[C@H](O)[C@@H](O)CN2CC[C@H](O)[C@H]12` [castanospermine, (1S,6S,7R,8aR)-Tetrahydroxyoctahydroindolizine]: the “Inhibition of ZIKV infection (ZIKV protein NS1 expression)” value in the assay on FSS-13025 strain of ZIKV is “significantly inhibit ZIKV infection”.
